{
  "source": "patent US9873709B2",
  "about": "(priority 2013, dated 2018)",
  "data": [
    {"system": "JAK1-dependent STAT6 phosphorylation downstream of IL-13 stimulation in TF-1 human erythroleukemia cells", "assay": "cells", "conditions": "TF-1, read-out: IL-13-pSTAT6 IC50", "units": {"IC50": "nM"}, "values": [
      {"molecule": "CN1CCCCC1C1CCCN1C(=O)c1ccc(Nc2nc3c(N4CCC(O)(c5ccc(Cl)cc5)CC4)cccn3n2)cc1", "note": "(stereo not drawn) [Example 1-52, [4-[[8-[4-(4-chlorophenyl)-4-hydroxy-1-piperidyl]-[1,2,4]triazolo[1,5-a]pyridin-2-yl]amino]phenyl]-[2-(1-methyl-2-piperidyl)pyrrolidin-1-yl]methanone]", "IC50": 21.1},
      {"molecule": "CC(=O)N1CC2(C1)CN(C(=O)c1ccc(Nc3nc4c(N5CCC(O)(c6ccc(Cl)cc6)CC5)cccn4n3)cc1)C2", "note": "[Example 1-53, 1-[2-[4-[[8-[4-(4-chlorophenyl)-4-hydroxy-1-piperidyl]-[1,2,4]triazolo[1,5-a]pyridin-2-yl]amino]benzoyl]-2,6-diazaspiro[3.3]heptan-6-yl]ethanone]", "IC50": 27.4},
      {"molecule": "O=C(c1ccc(Nc2nc3c(N4CCC(O)(c5ccc(Cl)cc5)CC4)cccn3n2)cc1)N1CCN(C2CC2)CC1", "note": "[Example 1-54, [4-[[8-[4-(4-chlorophenyl)-4-hydroxy-1-piperidyl]-[1,2,4]triazolo[1,5-a]pyridin-2-yl]amino]phenyl]-(4-cyclopropylpiperazin-1-yl)methanone]", "IC50": 100},
      {"molecule": "CN1CCC2(C1)CN(C(=O)c1ccc(Nc3nc4c(N5CCC(O)(c6ccc(Cl)cc6)CC5)cccn4n3)cc1)C2", "note": "[Example 1-59, [4-[[8-[4-(4-chlorophenyl)-4-hydroxy-1-piperidyl]-[1,2,4]triazolo[1,5-a]pyridin-2-yl]amino]phenyl]-(7-methyl-2,7-diazaspiro[3.4]octan-2-yl)methanone]", "IC50": 15.5},
      {"molecule": "CN1CCCC12CN(C(=O)c1ccc(Nc3nc4c(N5CCC(O)(c6ccc(Cl)cc6)CC5)cccn4n3)cc1)C2", "note": "[Example 1-60, [4-[[8-[4-(4-chlorophenyl)-4-hydroxy-1-piperidyl]-[1,2,4]triazolo[1,5-a]pyridin-2-yl]amino]phenyl]-(5-methyl-2,5-diazaspiro[3.4]octan-2-yl)methanone]", "IC50": 12.2},
      {"molecule": "CN1CCC(NC(=O)c2ccc(Nc3nc4c(N5CCC(O)(c6ccc(Cl)cc6)CC5)cccn4n3)cc2)C1", "note": "(stereo not drawn) [Example 1-62, 4-[[8-[4-(4-chlorophenyl)-4-hydroxy-1-piperidyl]-[1,2,4]triazolo[1,5-a]pyridin-2-yl]amino]-N-(1-methylpyrrolidin-3-yl)benzamide]", "IC50": 22.8},
      {"molecule": "CN(C)C(=O)C1(c2ccncc2)CCCN1C(=O)c1ccc(Nc2nc3c(N4CCC(O)(c5ccc(Cl)cc5)CC4)cccn3n2)cc1", "note": "(stereo not drawn) [Example 1-74, 1-[4-[[8-[4-(4-chlorophenyl)-4-hydroxy-1-piperidyl]-[1,2,4]triazolo[1,5-a]-pyridin-2-yl]amino]benzoyl]-N,N-dimethyl-2-(4-pyridyl)pyrrolidine-2-carboxamide]", "IC50": 33.5},
      {"molecule": "CN1C[C@@H]2CCN(C(=O)c3ccc(Nc4nc5c(N6CCC(O)(c7ccc(Cl)cc7)CC6)cccn5n4)cc3)[C@@H]2C1", "note": "[Example 1-76, [(3aS,6aS)-5-methyl-2,3,3a,4,6,6a-hexahydropyrrolo[2,3-c]pyrrol-1-yl]-[4-[[8-[4-(4-chlorophenyl)-4-hydroxy-1-piperidyl]-[1,2,4]triazolo[1,5-a]pyridin-2-yl]amino]phenyl] methanone]", "IC50": 12.7},
      {"molecule": "CN1CCC2(CC1)CN(C(=O)c1ccc(Nc3nc4c(N5CCC(O)(c6ccc(Cl)cc6)CC5)cccn4n3)cc1)C2", "note": "[Example 1-81, [4-[[8-[4-(4-chlorophenyl)-4-hydroxy-1-piperidyl]-[1,2,4]triazolo[1,5-a]pyridin-2-yl]amino]phenyl]-(7-methyl-2,7-diazaspiro[3.5]nonan-2-yl)methanone]", "IC50": 10.9},
      {"molecule": "CN(C)C1CCN(C(=O)c2ccc(Nc3nc4c(N5CCC(O)(c6ccc(Cl)cc6)CC5)cccn4n3)cc2)CC1", "note": "[Example 1-86, [4-[[8-[4-(4-chlorophenyl)-4-hydroxy-1-piperidyl]-[1,2,4]triazolo[1,5-a]pyridin-2-yl]amino]phenyl]-[4-(dimethylamino)-1-piperidyl]methanone]", "IC50": 21.3},
      {"molecule": "O=C(N[C@H]1CN2CCC1CC2)c1ccc(Nc2nc3c(N4CCC(O)(c5ccc(Cl)cc5)CC4)cccn3n2)cc1", "note": "[Example 1-89, 4-[[8-[4-(4-chlorophenyl)-4-hydroxy-1-piperidyl]-[1,2,4]triazolo[1,5-a]pyridin-2-yl]amino]-N-[(3R)-quinuclidin-3-yl]benzamide]", "IC50": 127},
      {"molecule": "CN1CC(NC(=O)c2ccc(Nc3nc4c(N5CCC(O)(c6ccc(Cl)cc6)CC5)cccn4n3)cc2)C1", "note": "[Example 1-92, 4-[[8-[4-(4-chlorophenyl)-4-hydroxy-1-piperidyl]-[1,2,4]triazolo[1,5-a]pyridin-2-yl]amino]-N-(1-methylazetidin-3-yl)benzamide]", "IC50": 59.3},
      {"molecule": "O=C(NCCN1CCC(O)CC1)c1ccc(Nc2nc3c(N4CCC(O)(c5ccc(Cl)cc5)CC4)cccn3n2)cc1", "note": "[Example 1-95, 4-[[8-[4-(4-chlorophenyl)-4-hydroxy-1-piperidyl]-[1,2,4]triazolo[1,5-a]pyridin-2-yl]amino]-N-[2-(4-hydroxy-1-piperidyl)ethyl] benzamide]", "IC50": 115},
      {"molecule": "CN1CCN(CCCNC(=O)c2ccc(Nc3nc4c(N5CCC(O)(c6ccc(Cl)cc6)CC5)cccn4n3)cc2)CC1", "note": "[Example 1-96, 4-[[8-[4-(4-chlorophenyl)-4-hydroxy-1-piperidyl]-[1,2,4]triazolo[1,5-a]pyridin-2-yl]amino]-N-[3-(4-methylpiperazin-1-yl)propyl]benzamide]", "IC50": 64.6},
      {"molecule": "CN1CCN(CCNC(=O)c2ccc(Nc3nc4c(N5CCC(O)(c6ccc(Cl)cc6)CC5)cccn4n3)cc2)CC1", "note": "[Example 1-97, 4-[[8-[4-(4-chlorophenyl)-4-hydroxy-1-piperidyl]-[1,2,4]triazolo[1,5-a]pyridin-2-yl]amino]-N-[2-(4-methylpiperazin-1-yl)ethyl]benzamide]", "IC50": 25},
      {"molecule": "O=C(NCCN1CCOCC1)c1ccc(Nc2nc3c(N4CCC(O)(c5ccc(Cl)cc5)CC4)cccn3n2)cc1", "note": "[Example 1-101, 4-[[8-[4-(4-chlorophenyl)-4-hydroxy-1-piperidyl]-[1,2,4]triazolo[1,5-a]pyridin-2-yl]amino]-N-(2-morpholinoethyl)benzamide]", "IC50": 14},
      {"molecule": "CN1CCCCC1CNC(=O)c1ccc(Nc2nc3c(N4CCC(O)(c5ccc(Cl)cc5)CC4)cccn3n2)cc1", "note": "(stereo not drawn) [Example 1-103, 4-[[8-[4-(4-chlorophenyl)-4-hydroxy-1-piperidyl]-[1,2,4]triazolo[1,5-a]pyridin-2-yl]amino]-N-[(1-methyl-2-piperidyl)methyl]benzamide]", "IC50": 23.8},
      {"molecule": "CN1CCC(NC(=O)c2ccc(Nc3nc4c(N5CCC(O)(c6ccc(Cl)cc6)CC5)cccn4n3)cc2)CC1", "note": "[Example 1-105, 4-[[8-[4-(4-chlorophenyl)-4-hydroxy-1-piperidyl]-[1,2,4]triazolo[1,5-a]pyridin-2-yl]amino]-N-(1-methyl-4-piperidyl)benzamide]", "IC50": 14.1},
      {"molecule": "CN(Cc1ccncc1)C(=O)c1ccc(Nc2nc3c(N4CCC(O)(c5ccc(Cl)cc5)CC4)cccn3n2)cc1", "note": "[Example 1-111, 4-[[8-[4-(4-chlorophenyl)-4-hydroxy-1-piperidyl]-[1,2,4]triazolo[1,5-a]pyridin-2-yl]amino]-N-methyl-N-(4-pyridylmethyl)benzamide]", "IC50": 15.6},
      {"molecule": "CN1CCN(C(=O)C2CCN(C(=O)c3ccc(Nc4nc5c(N6CCC(O)(c7ccc(Cl)cc7)CC6)cccn5n4)cc3)CC2)CC1", "note": "[Example 1-113, [4-[[8-[4-(4-chlorophenyl)-4-hydroxy-1-piperidyl]-[1,2,4]triazolo[1,5-a]pyridin-2-yl]amino]phenyl]-[4-(4-methylpiperazine-1-carbonyl)-1-piperidyl]methanone]", "IC50": 26.7},
      {"molecule": "O=C(c1ccc(Nc2nc3c(N4CCC(O)(c5ccc(Cl)cc5)CC4)cccn3n2)cc1)N1CCCN(c2ccncc2)CC1", "note": "[Example 1-114, [4-[[8-[4-(4-chlorophenyl)-4-hydroxy-1-piperidyl]-[1,2,4]triazolo[1,5-a]pyridin-2-yl]amino]phenyl]-[4-(4-pyridyl)-1,4-diazepan-1-yl]methanone]", "IC50": 29.7},
      {"molecule": "O=C(c1ccc(Nc2nc3c(N4CCC(O)(c5ccc(Cl)cc5)CC4)cccn3n2)cc1)N1CCN(CCn2ccnc2)CC1", "note": "[Example 1-116, [4-[[8-[4-(4-chlorophenyl)-4-hydroxy-1-piperidyl]-[1,2,4]triazolo[1,5-a]pyridin-2-yl]amino]phenyl]-[4-(2-imidazol-1-ylethyl)piperazin-1-yl]methanone]", "IC50": 34},
      {"molecule": "O=C(c1ccc(Nc2nc3c(N4CCC(O)(c5ccc(Cl)cc5)CC4)cccn3n2)cc1)N1CCCCC1Cc1ccccn1", "note": "(stereo not drawn) [Example 1-121, [4-[[8-[4-(4-chlorophenyl)-4-hydroxy-1-piperidyl]-[1,2,4]triazolo[1,5-a]pyridin-2-yl]amino]phenyl]-[2-(2-pyridylmethyl)-1-piperidyl]methanone]", "IC50": 131},
      {"molecule": "CN1CCCC(CNC(=O)c2ccc(Nc3nc4c(N5CCC(O)(c6ccc(Cl)cc6)CC5)cccn4n3)cc2)C1", "note": "(stereo not drawn) [Example 1-141, 4-[[8-[4-(4-chlorophenyl)-4-hydroxy-1-piperidyl]-[1,2,4]triazolo[1,5-a]pyridin-2-yl]amino]-N-[(1-methyl-3-piperidyl)methyl]benzamide]", "IC50": 57.9},
      {"molecule": "CNC(=O)C1CN(C)CCN1C(=O)c1ccc(Nc2nc3c(N4CCC(O)(c5ccc(Cl)cc5)CC4)cccn3n2)cc1", "note": "(stereo not drawn) [Example 1-152, 1-[4-[[8-[4-(4-chlorophenyl)-4-hydroxy-1-piperidyl]-[1,2,4]triazolo[1,5-a]pyridin-2-yl]amino]benzoyl]-N,4-dimethyl-piperazine-2-carboxamide]", "IC50": 65},
      {"molecule": "CN(C)C(=O)C1CN(C(=O)c2ccc(Nc3nc4c(N5CCC(O)(c6ccc(Cl)cc6)CC5)cccn4n3)cc2)C1", "note": "[Example 1-164, 1-[4-[[8-[4-(4-chlorophenyl)-4-hydroxy-1-piperidyl]-[1,2,4]triazolo[1,5-a]pyridin-2-yl]amino]benzoyl]-N,N-dimethyl-azetidine-3-carboxamide]", "IC50": 10.8},
      {"molecule": "CN1CCN(C(=O)C2CN(C(=O)c3ccc(Nc4nc5c(N6CCC(O)(c7ccc(Cl)cc7)CC6)cccn5n4)cc3)C2)CC1", "note": "[Example 1-165, [4-[[8-[4-(4-chlorophenyl)-4-hydroxy-1-piperidyl]-[1,2,4]triazolo[1,5-a]pyridin-2-yl]amino]phenyl]-[3-(4-methylpiperazine-1-carbonyl)azetidin-1-yl]methanone]", "IC50": 25.1}
    ]}
  ]
}
